This experiment addresses JAK1 (Homo sapiens (Human), UniProt P23458). Put plainly: Analysis of JAK1 activity inhibitory capacity (ADP-Glo Kinase assay). The experiment is classed as biochemical. Particulars: JAK1 enzyme, ATP 250 uM, IRS-1tide substrate, 30° C. 40 minutes, luminescence. As for the experimental part:
Experimental Example 1: Analysis of JAK1 activity inhibitory capacity (ADP-Glo™ Kinase assay)
An inhibitory effect of the inventive compound on JAK was identified as follows.
A control material and a test material were prepared through dilution at each concentration by using DMSO. At the same time, ATP (250 uM) and JAK's substrate (JAK1, IRS-1tide 40 ng/mL) were prepared through dilution in kinase buffer (40 mM Tris-HCl pH 7.5, 20 mM MgCl2, 0.5 mg/mL BSA, 50 uM DTT).
A test drug for each concentration, the substrate, the ATP and JAK enzymes were mixed in an eppendorf tube, and then subjected to reaction in an incubator at 30° C. for 40 minutes.
ADP-Glo ? reagent included in ADP-Glo™ Kinase Enzyme System (Promega, USA, V9571) was added to each eppendorf tube, and then subjected to reaction in the incubator at 30° C. for 40 minutes.
A kinase detection reagent included in the ADP-Glo™ Kinase Enzyme System was inserted into the eppendorf tube, after which luminescence was measured by using Wallac Victor 2TM with an integration time set to 1 second, such that an inhibitory capacity of the test material on JAKs phosphorylation was analyzed. A concentration of the compound, at which JAK enzyme activity inhibition occurs 50% compared to the control group, was determined as IC50 (nM) of an inhibitor.
Sequence of JAK1 (P23458 whole entry): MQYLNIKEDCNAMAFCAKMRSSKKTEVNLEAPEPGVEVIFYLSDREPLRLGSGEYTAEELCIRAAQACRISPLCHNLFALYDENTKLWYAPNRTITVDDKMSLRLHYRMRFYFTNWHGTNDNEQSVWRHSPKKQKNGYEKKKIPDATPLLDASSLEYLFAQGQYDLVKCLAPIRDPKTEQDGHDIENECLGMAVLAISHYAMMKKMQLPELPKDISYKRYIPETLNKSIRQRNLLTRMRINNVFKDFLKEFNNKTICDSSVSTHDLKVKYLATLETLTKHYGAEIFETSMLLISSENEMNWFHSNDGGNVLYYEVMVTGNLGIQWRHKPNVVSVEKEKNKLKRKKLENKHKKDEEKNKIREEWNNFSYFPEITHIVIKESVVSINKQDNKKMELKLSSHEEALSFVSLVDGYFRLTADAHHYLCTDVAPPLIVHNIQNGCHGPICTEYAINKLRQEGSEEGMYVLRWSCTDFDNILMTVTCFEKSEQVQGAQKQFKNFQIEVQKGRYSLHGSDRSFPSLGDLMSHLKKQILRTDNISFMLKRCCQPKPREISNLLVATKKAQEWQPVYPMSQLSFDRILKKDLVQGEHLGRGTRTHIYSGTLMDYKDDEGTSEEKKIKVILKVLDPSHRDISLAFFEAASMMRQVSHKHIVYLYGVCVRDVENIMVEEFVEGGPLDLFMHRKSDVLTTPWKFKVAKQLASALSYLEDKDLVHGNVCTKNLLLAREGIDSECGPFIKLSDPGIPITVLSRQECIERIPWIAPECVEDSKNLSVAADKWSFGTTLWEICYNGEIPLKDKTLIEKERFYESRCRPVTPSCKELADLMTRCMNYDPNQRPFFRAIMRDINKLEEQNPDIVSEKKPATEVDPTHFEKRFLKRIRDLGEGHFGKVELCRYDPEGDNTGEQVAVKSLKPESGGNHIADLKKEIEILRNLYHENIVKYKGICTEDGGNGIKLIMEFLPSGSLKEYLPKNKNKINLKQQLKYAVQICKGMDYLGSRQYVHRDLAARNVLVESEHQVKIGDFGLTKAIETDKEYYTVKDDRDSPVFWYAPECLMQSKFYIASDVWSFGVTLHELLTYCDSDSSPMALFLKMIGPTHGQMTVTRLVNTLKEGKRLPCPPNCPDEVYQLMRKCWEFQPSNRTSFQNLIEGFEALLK
Take `N#Cc1ccc(C(=O)Nc2cccc3c(-c4ccnc(NC(=O)C5CC5)c4)c[nH]c23)cc1` [Example 27, 4-cyano-N-(3-(2-(cyclopropanecarboxamido)pyridin-4-yl)-1H-indol-7-yl)benzamide]: the IC50 (in general, the concentration that gives 50% inhibition) fell in the range of 0.1 to 1 µM.

Take `N#Cc1ccc(C(=O)Nc2cccc3c2ccn3-c2ccnc(NC(=O)C3CC3)c2)cc1` [Example 47, 4-cyano-N-(1-(2-(cyclopropanecarboxamido)pyridin-4-yl)-1H-indol-4-yl)benzamide]: the IC50 is > 1 µM. Compound `N#CCC(=O)Nc1cccc2c1ccn2-c1ccnc(NC(=O)C2CC2)c1` [Example 41, N-(4-(4-(2-cyanoacetamido)-1H-indol-1-yl)pyridin-2-yl)cyclopropanecarboxamide] gave an IC50 of 0.1 to 1 µM. Consider `O=C(Nc1cccc2c1ccn2-c1ccnc(NC(=O)C2CC2)c1)c1cc(F)cc(F)c1` [Example 44, N-(1-(2-(cyclopropanecarboxamido)pyridin-4-yl)-1H-indol-4-yl)-3,5-difluorobenzamide], for which the IC50 is > 1 µM. `N#CC1(C(=O)Nc2cccc3c2ccn3-c2ccnc(NC(=O)C3CC3)c2)CCOCC1` [Example 50, 4-cyano-N-(1-(2-(cyclopropanecarboxamido)pyridin-4-yl)-1H-indol-4-yl)tetrahydro-2H-pyran-4-carboxamide]: the IC50 is > 1 µM.

As to `CC(C)=C(C#N)C(=O)Nc1cccc2c(-c3ccnc(NC(=O)C4CC4)c3)c[nH]c12` [Example 1, N-(4-(7-(2-cyano-3-methylbut-2-enamido)-1H-indol-3-yl)pyridin-2-yl)cyclopropanec arboxamide], the IC50 is < 0.1 µM. In turn, `CC(C)=C(C#N)C(=O)Nc1cc(C)cc2c(-c3ccnc(NC(=O)C4CC4)c3)c[nH]c12` [Example 15, N-(4-(7-(2-cyano-3-methylbut-2-enamido)-5-methyl-1H-indol-3-yl)pyridin-2-yl)cyclo propanecarboxamide] yielded an IC50 of 0.1 to 1 µM. The result for `CC(C)=C(C#N)C(=O)Nc1cccc2c(-c3cc(NC(=O)C4CC4)ncc3C)c[nH]c12` [Example 12, N-(4-(7-(2-cyano-3-methylbut-2-enamido)-1H-indol-3-yl)-5-methylpyridin-2-yl)cyclopropanecarboxamide] reads > 1 µM. Turning to `O=C(Nc1cccc2c(-c3ccnc(NC(=O)C4CC4)c3)c[nH]c12)c1cncs1` [Example 6, N-(3-(2-(cyclopropanecarboxamido)pyridin-4-yl)-1H-indol-7-yl)thiazole-5-carboxamide], the IC50 was < 0.1 µM. Under `N#CC1(CC(=O)Nc2cccc3c(-c4ccnc(NC(=O)C5CC5)c4)c[nH]c23)CC1` [Example 13, N-(4-(7-(2-(l-cyanocyclopropyl)acetamido)-1H-indol-3-yl)pyridin-2-yl)cyclopropanecarboxamide] stands 0.1 to 1 µM; under `O=C(Nc1cccc2c(-c3ccnc(NC(=O)C4CC4)c3)c[nH]c12)c1ccc(C(F)(F)F)nc1` [Example 29, N-(3-(2-(cyclopropanecarboxamido)pyridin-4-yl)-1H-indol-7-yl)-6-(trifluoromethyl) nicotinamide], 0.1 to 1 µM. In turn, `CC(C#N)C(=O)Nc1cccc2c1ccn2-c1ccnc(NC(=O)C2CC2)c1` (stereo not shown) [Example 54, N-(4-(4-(2-cyanopropanamido)-1H-indol-1-yl)pyridin-2-yl)cyclopropanecarboxamide] registered an IC50 of 0.1 to 1 µM. On to `N#Cc1cc(C(=O)Nc2cccc3c(-c4ccnc(NC(=O)C5CC5)c4)c[nH]c23)ccn1` [Example 35, 2-cyano-N-(3-(2-(cyclopropanecarboxamido)pyridin-4-yl)-1H-indol-7-yl)isonicotin amide], for which the IC50 fell in the range of 0.1 to 1 µM. With `N#CCC(=O)Nc1cccc2c(-c3ccnc(NC(=O)C4CC4)c3)c[nH]c12` [Example 10, N-(4-(7-(2-cyanoacetamido)-1H-indol-3-yl)pyridin-2-yl)cyclopropanecarboxamide], the IC50 is < 0.1 µM. For `O=C(Nc1cccc2c(-c3ccnc(NC(=O)C4CC4)c3)c[nH]c12)c1cnc(F)c(F)c1` [Example 30, N-(3-(2-(cyclopropanecarboxamido)pyridin-4-yl)-1H-indol-7-yl)-5,6-difluoronicotinamide], the IC50 is < 0.1 µM. Under `Cc1ncc(C(=O)Nc2cccc3c2ccn3-c2ccnc(NC(=O)C3CC3)c2)s1` [Example 43, N-(1-(2-(cyclopropanecarboxamido)pyridin-4-yl)-1H-indol-4-yl)-2-methylthiazole-5-carboxamide] stands > 1 µM; under `Cn1cccc(C(=O)Nc2cccc3c(-c4ccnc(NC(=O)C5CC5)c4)c[nH]c23)c1=O` [Example 34, N-(3-(2-(cyclopropanecarboxamido)pyridin-4-yl)-1H-indol-7-yl)-1-methyl-2-oxo-1,2-dihydropyridine-3-carboxamide], 0.1 to 1 µM; under `Cc1ccc(C(=O)Nc2cccc3c2ccn3-c2ccnc(NC(=O)C3CC3)c2)cn1` [Example 59, N-(1-(2-(cyclopropanecarboxamido)pyridin-4-yl)-1H-indol-4-yl)-6-methylnicotinamide], > 1 µM.

Consider `O=C(NCC(F)(F)F)Nc1cccc2c1ccn2-c1ccnc(NC(=O)C2CC2)c1` [Example 62, N-(4-(4-(3-(2,2,2-trifluoroethyl)ureido)-1H-indol-1-yl)pyridin-2-yl)cyclopropanecarboxamide], for which the IC50 was < 0.1 µM. Take `O=C(Nc1cccc2c1ccn2-c1ccnc(NC(=O)C2CC2)c1)c1cc[nH]n1` [Example 55, N-(1-(2-(cyclopropanecarboxamido)pyridin-4-yl)-1H-indol-4-yl)-1H-pyrazole-3-carboxamide]: the IC50 is > 1 µM. `Cn1c(C(=O)Nc2cccc3c2ccn3-c2ccnc(NC(=O)C3CC3)c2)cc2ccccc21` [Example 49, N-(1-(2-(cyclopropanecarboxamido)pyridin-4-yl)-1H-indol-4-yl)-1-methyl-1H-indole-2-carboxamide]: the IC50 was > 1 µM. Regarding `N#C/C(=C\c1ccccc1)C(=O)Nc1cccc2c(-c3ccnc(NC(=O)C4CC4)c3)c[nH]c12` [Example 22, (E)-N-(4-(7-(2-cyano-3-phenylacrylamido)-1H-indol-3-yl)pyridin-2-yl)cyclopropanecarboxamide], the IC50 is 0.1 to 1 µM.

As for `O=C(NCC(F)(F)F)Nc1cccc2c(-c3ccnc(NC(=O)C4CC4)c3)c[nH]c12` [Example 39, N-(4-(7-(3-(2,2,2-trifluoroethyl)ureido)-1H-indol-3-yl)pyridin-2-yl)cyclopropanecarboxamide], the IC50 was < 0.1 µM.

As to `Cn1cccc(C(=O)Nc2cccc3c2ccn3-c2ccnc(NC(=O)C3CC3)c2)c1=O` [Example 45, N-(1-(2-(cyclopropanecarboxamido)pyridin-4-yl)-1H-indol-4-yl)-1-methyl-2-oxo-1,2-dihydropyridine-3-carboxamide], the half-inhibitory concentration (IC50) was > 1 µM. As for `N#Cc1cc(C(=O)Nc2cccc3c2ccn3-c2ccnc(NC(=O)C3CC3)c2)ccn1` [Example 51, 2-cyano-N-(1-(2-(cyclopropanecarboxamido)pyridin-4-yl)-1H-indol-4-yl)isonicotinamide], the IC50 is > 1 µM. The result for `O=C(Nc1cccc2c(-c3ccnc(NC(=O)C4CC4)c3)c[nH]c12)c1ccnc(F)c1` [Example 4, N-(3-(2-(cyclopropanecarboxamido)pyridin-4-yl)-1H-indol-7-yl)-2-fluoroisonicotinamide] reads < 0.1 µM; that for `COc1cc(-c2c[nH]c3c(NC(=O)C(C#N)=C(C)C)cccc23)cc(NC(=O)C2CC2)n1` [Example 19, N-(4-(7-(2-cyano-3-methylbut-2-enamido)-1H-indol-3-yl)-6-methoxypyridin-2-yl)cyclopropanecarboxamide], > 1 µM. With `N#CC1(C(=O)Nc2cccc3c(-c4ccnc(NC(=O)C5CC5)c4)c[nH]c23)CCOCC1` [Example 11, 4-cyano-N-(3-(2-(cyclopropanecarboxamido)pyridin-4-yl)-1H-indol-7-yl)tetrahydro-2H-pyran-4-carboxamide], the concentration for half-maximal inhibition (IC50) lay within 0.1 to 1 µM.

Source of the values: patent US12180185B2, “Compound as protein kinase inhibitor, and pharmaceutical composition comprising thereof” (HK INNO.N Corporation, priority 2018, dated 2024).
